# Reference: patent US20260250318A1, “COMPOSITIONS AND METHODS FOR CROSSING THE BLOOD BRAIN BARRIER” (VOYAGER THERAPEUTICS, INC., priority 2022, published 2026)
# Key:
# [1] = test system: brains, heart, liver, muscle, and DRG of the NHPs; assay: Maturation of TTM-001 and TTM-002 capsids, NGS enrichment in NHP tissues; assay type: in vivo; conditions: relative to AAV9 control
# Outline: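 Variants carry mutations within and flanking the loop IV peptide insert: positions 450–466 were triplet-randomized, while positions 449–466 received low-frequency point mutations. The combined pool went into two NHPs, and each peptide was scored by NGS enrichment ratio against AAV9.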
# [2] = test system: brain; assay: Matured TTM-001 and TTM-002 variants, NGS enrichment in mouse brain; assay type: in vivo, mice; conditions: relative to AAV9 control
# [3] = NGS fold-enrichment of RNA, NHP brain
# [4] = NGS fold-enrichment, NHP liver DNA
# [5] = NGS fold-enrichment, NHP liver RNA
# [6] = NGS fold-enrichment, NHP muscle
# [7] = NGS fold-enrichment, mouse brain
# [8] = NGS fold-enrichment of matured AAV capsid variants, NHP brain, RNA
# [9] = NGS fold-enrichment, DRG of NHPs
# [10] = NGS fold-enrichment, RNA, brain of NHPs
# [11] = NGS fold-enrichment, heart of NHPs
# [12] = NGS fold-enrichment, liver DNA of NHPs
# [13] = NGS fold-enrichment, liver RNA of NHPs
# [14] = NGS fold-enrichment, muscle of NHPs
# [15] = NGS fold-enrichment, brain of mice
Sequence,"Fold Enrichment relative to AAV9, Brain (NHP) [1, 3] [fold]","Fold Enrichment relative to AAV9, DRG (NHP) ([1]; NGS fold-enrichment, NHP DRG) [fold]","Fold Enrichment relative to AAV9, Heart (NHP) ([1]; NGS fold-enrichment, NHP heart) [fold]","Fold Enrichment relative to AAV9, Liver DNA (NHP) [1, 4] [fold]","Fold Enrichment relative to AAV9, Liver RNA (NHP) [1, 5] [fold]","Fold Enrichment relative to AAV9, Muscle (NHP) [1, 6] [fold]","Fold Enrichment relative to AAV9, Brain (NHP) [1, 8] [fold]","Fold Enrichment relative to AAV9, DRG (NHP) ([1]; NHP DRG) [fold]","Fold Enrichment relative to AAV9, Heart (NHP) ([1]; NHP heart) [fold]","Fold Enrichment relative to AAV9, Liver DNA (NHP) ([1]; NHP liver, DNA) [fold]","Fold Enrichment relative to AAV9, Liver RNA (NHP) ([1]; NHP liver, RNA) [fold]","Fold Enrichment relative to AAV9, Muscle (NHP) ([1]; NHP muscle) [fold]","Fold Enrichment relative to AAV9, Brain (Mouse) ([2]; mouse brain) [fold]","Fold Enrichment relative to AAV9, DRG (NHP) [1, 9] [fold]","Fold Enrichment relative to AAV9, Brain (NHP) [1, 10] [fold]","Fold Enrichment relative to AAV9, Heart (NHP) [1, 11] [fold]","Fold Enrichment relative to AAV9, Liver DNA (NHP) [1, 12] [fold]","Fold Enrichment relative to AAV9, Liver RNA (NHP) [1, 13] [fold]","Fold Enrichment relative to AAV9, Muscle (NHP) [1, 14] [fold]","Fold Enrichment relative to AAV9, Brain (Mouse) [2, 15] [fold]",other results
KSIYGHESPHKSGQNQQS,90.947,0.817,0.310,0.243,0.000,0.000,,,,,,,,,,,,,,,"Fold Enrichment relative to AAV9, Brain (Mouse) [2, 7]: 8.064 fold"
KTINGGGSPHSKAQNQMT,,,,,,,55.778,0.000,0.000,0.012,0.866,0.000,73.177,,,,,,,,
KTINGSGSPHSKAQRDQT,,,,,,,51.897,0.069,0.014,0.554,0.867,0.040,102.317,,,,,,,,
KTINGSGSPHSKAQNIII,,,,,,,56.630,0.000,0.062,0.056,0.099,0.123,76.742,,,,,,,,
KTINGSGSPHTKAQNPQS,,,,,,,,,,,,,,0.000,72.594,0.000,0.130,0.000,0.000,62.508,
KNNLGSGSPHSKAQNQQT,,,,,,,50.670,0.000,0.019,0.121,0.406,0.000,102.408,,,,,,,,
KTVNGHDSPHKSGQTRQT,133.276,0.251,0.080,0.129,0.034,0.093,,,,,,,,,,,,,,,"Fold Enrichment relative to AAV9, Brain (Mouse) [2, 7]: 7.174 fold"
KTEKGSGSPHSKAQNQQT,105.614,0.053,0.031,0.169,0.586,0.000,,,,,,,,0.053,105.614,0.031,0.169,0.586,0.000,84.653,"Fold Enrichment relative to AAV9, Brain (Mouse) [2, 7]: 84.653 fold"
KTINGSGSPHSKARDWQT,,,,,,,58.216,0.000,0.005,0.259,0.800,0.000,120.704,,,,,,,,
KTISGSGSPHSKAQYQHT,,,,,,,,,,,,,,0.000,66.739,0.000,0.191,0.000,0.000,59.822,
KAINRSGSPHSKAQDQQT,,,,,,,51.262,0.000,0.000,0.036,0.000,0.000,54.631,,,,,,,,
KTEKNSGSPHSKAQNQQT,,,,,,,,,,,,,,0.000,73.347,0.000,0.021,0.159,0.044,74.393,
KTERNSGSPHSKAQNQQT,99.892,0.000,0.000,0.107,0.000,0.000,,,,,,,,0.000,99.892,0.000,0.107,0.000,0.000,87.392,"Fold Enrichment relative to AAV9, Brain (Mouse) [2, 7]: 87.392 fold"
KTEKISGSPHSKAQNQQT,116.603,0.000,0.000,0.426,0.000,0.000,,,,,,,,0.000,116.603,0.000,0.426,0.000,0.000,102.978,"Fold Enrichment relative to AAV9, Brain (Mouse) [2, 7]: 102.978 fold"
KTVNGNGSPHSKAQNQHT,78.849,0.000,0.000,0.045,0.000,0.000,,,,,,,,0.000,78.849,0.000,0.045,0.000,0.000,54.086,"Fold Enrichment relative to AAV9, Brain (Mouse) [2, 7]: 54.086 fold"
KTINGSGSPHSKAQSTMT,,,,,,,51.249,0.018,0.002,0.341,0.321,0.002,73.213,,,,,,,,
KTERMSGSPHSKAQNQQT,,,,,,,,,,,,,,0.000,74.910,0.000,0.151,0.100,0.000,122.812,
KTINGSGSPHSKALHQHT,77.502,0.000,0.052,0.188,0.000,0.041,,,,,,,,0.000,77.502,0.052,0.188,0.000,0.041,68.196,"Fold Enrichment relative to AAV9, Brain (Mouse) [2, 7]: 68.196 fold"
KTINGSGSPHSKAQKIST,,,,,,,50.285,0.000,0.000,0.302,0.108,0.088,51.115,,,,,,,,
